Data from patent US9353082B2, “Pharmaceutical compounds” (BIAL—PORTELA & CA, S.A., priority 2008, dated 2016).

Target: T1, FAAH (Rattus norvegicus, UniProt P97612)
T1 construct: Frozen brains (without cerebellum) from Wistar rats were used; from tissue; host or cells: Wistar rat brain (without cerebellum), washed membrane pellets
T1 sequence (P97612 1-579): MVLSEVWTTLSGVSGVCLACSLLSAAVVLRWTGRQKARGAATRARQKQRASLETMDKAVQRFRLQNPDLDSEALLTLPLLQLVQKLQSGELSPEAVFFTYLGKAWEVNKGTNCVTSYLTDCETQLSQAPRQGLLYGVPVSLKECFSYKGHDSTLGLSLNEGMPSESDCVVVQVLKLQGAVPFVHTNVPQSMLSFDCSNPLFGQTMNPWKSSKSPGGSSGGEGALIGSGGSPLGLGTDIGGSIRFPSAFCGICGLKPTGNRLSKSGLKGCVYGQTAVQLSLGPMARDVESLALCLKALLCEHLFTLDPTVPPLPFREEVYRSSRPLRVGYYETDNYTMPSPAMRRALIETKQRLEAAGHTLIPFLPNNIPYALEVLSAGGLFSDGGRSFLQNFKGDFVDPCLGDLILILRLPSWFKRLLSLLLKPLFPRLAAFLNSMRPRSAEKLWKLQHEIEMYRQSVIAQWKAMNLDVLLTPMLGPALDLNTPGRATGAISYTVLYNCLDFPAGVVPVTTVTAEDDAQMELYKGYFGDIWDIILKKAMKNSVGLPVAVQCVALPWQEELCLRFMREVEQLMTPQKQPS
Assay: In vitro FAAH activity in rat brain membranes, 3H-AEA substrate, % of control
Format: biochemical, Wistar rats
Conditions: low value = strong inhibitor; for In Vitro FAAH activity, 100 nM: 100 nM test compound; for In Vitro FAAH activity, 10 uM: 10 uM test compound
Protocol: 3. Biological Efficacy of Compounds of the Invention The in vitro test was performed according to the protocol described below. The controls for both in vitro and in vivo were the reaction mix minus the test compounds. Therefore, a low value in Table 1 below for the test compounds indicates a strong inhibitor.
The in vitro pharmaceutical FAAH activity was determined according to the following method:
Frozen brains (without cerebellum) from Wistar rats were used, and each brain was homogenized in 15 ml 1 mM MgCL2, […] HEPES pH 7.0 with Potter Elvejhem (8 strokes at 500 rpm). Homogenates were centrifuged for 20 min at 36000 g at 4° C. (Beckman, 70Ti rotor). Pellets were resuspended in 15 ml of the same buffer and centrifuged under the same conditions. Pellets were resuspended in 15 ml of the same buffer and incubated for 15 min at 37° C. after which they were centrifuged for 20 min at 36000 g at 4° C. Each pellet was then resuspended in 15 ml 3 mM MgCl2, 1 mM EDTA, 50 mM Tris pH 7.4 and protein determined with BioRad Protein Assay (BioRad) using a standard curve of BSA (50-250 μg/ml). The membrane suspensions were aliquoted and stored at −80° C.
The FAAH activity was determined using AEA (labelled with 3H in the ethanolamine part of the molecule) as substrate and measuring the 3H-ethanolamine formed. Reaction mix (total volume of 200 up contained: 2 μM AEA (2 μM AEA+5 nM 3H-AEA), 0.1% fatty acid free BSA, 5 μg protein, in 1 mM EDTA, 10 mM Tris pH 7.6 and 10 μM or 0.1 μM compounds. Stock solutions of the compounds to test (10 mM) were prepared in 100% DMSO and the DMSO concentration in the assay was 0.1%. After a 15 min preincubation period at 37° C., reaction was started by the addition of the substrate solution ([…]). Reaction was carried out for 10 min before termination by the addition of 400 μl activated charcoal suspension (8 g charcoal in 32 ml 0.5 M HCl in continuous agitation). After a 30 min incubation period at room temperature with agitation, charcoal was sedimented by centrifugation in microfuge (10 min at 13000 rpm). 200 μl of the supernatant were added to 800 μl Optiphase Supermix scintillation cocktail previously distributed in 24-well plates. Counts per minute (cpm) were determined in Microbeta TriLux scintillation counter (10 min counting or until s=2).
In each assay blanks (no protein, usually below 200 cpm) and controls (no compound) were present. The results are reported in Table 1 as % of control after blank subtraction.

Compound | In Vitro FAAH activity, 100 nM | In Vitro FAAH activity, 10 uM | In Vitro 100 nM (FAAH activity, % of control) (rat brain membranes, compound at 100 nM)
O=C(N1CCN(C2CCCCC2)CC1)n1cnc(-c2ccc(F)c(F)c2)c1 [Compound 201, (4-cyclohexylpiperazin-1-yl)(4-(3,4-difluorophenyl)-1H-imidazol-1-yl)methanone] | 0.3 % of control |  | 
CN(C(=O)n1cnc(-c2cccs2)n1)c1ccccc1 [Compound 180, N-methyl-N-phenyl-3-(thiophen-2-yl)-1H-1,2,4-triazole-1-carboxamide] | 57.5 % of control |  | 
CCOc1cccc(-c2cccc(-c3cn(C(=O)N(C)C4CCCCC4)cn3)c2)c1 [Compound 258, N-cyclohexyl-4-(3'-ethoxybiphenyl-3-yl)-N-methyl-1H-imidazole-1-carboxamide] | 39.9 % of control |  | 
O=C(N1CCOCC1)n1cnc(-c2ccc(F)cc2F)n1 [Compound 78, (3-(2,4-difluorophenyl)-1H-1,2,4-triazol-1-yl)(morpholino)methanone] | 81.9 % of control |  | 
Cl.O=C(N1CCC(N2CCCCC2)CC1)n1nnc2ccccc21 [Compound 82, 1,4′-bipiperidin-1′-yl(1H-benzo[d][1,2,3]triazol-1-yl)methanone hydrochloride] | 69.3 % of control |  | 
CN(C(=O)n1cnc(-c2ccc(Cl)cc2)c1)C1CCCC1 [Compound 244, 4-(4-chlorophenyl)-N-cyclopentyl-N-methyl-1H-imidazole-1-carboxamide] | 5.4 % of control |  | 
NC(=O)C1CCN(C(=O)n2nnc3ccccc32)CC1 [Compound 179, 1-(1H-benzo[d][1,2,3]triazole-1-carbonyl)piperidine-4-carboxamide] | 49 % of control |  | 
C[C@@H]1CN(C(=O)n2nnc3ccccc32)C[C@H](C)O1 [Compound 194, (1H-benzo[d][1,2,3]triazol-1-yl)((2S,6R)-2,6-dimethylmorpholino)methanone] | 64.2 % of control |  | 
COc1ccc(-c2cn(C(=O)N(C)c3ccccc3)cn2)cc1 [Compound 28, 4-(4-methoxyphenyl)-N-methyl-N-phenyl-1H-imidazole-1-carboxamide] | 85.1 % of control | 0.7 % of control | 
COc1ccc(-c2cn(C(=O)N(C)C3CCCC3)cn2)cc1OC [Compound 281, N-cyclopentyl-4-(3,4-dimethoxyphenyl)-N-methyl-1H-imidazole-1-carboxamide] |  |  | 25.5 % of control
O=C(Nc1ccc(F)cc1F)n1nnc2ccccc21 [Compound 59, N-(2,4-difluorophenyl)-1H-benzo[d][1,2,3]triazole-1-carboxamide] | 100.4 % of control |  | 
CN(C(=O)n1cnc(-c2cccc(O)c2)c1)C1CCCC1 [Compound 262, N-cyclopentyl-4-(3-hydroxyphenyl)-N-methyl-1H-imidazole-1-carboxamide] | 7.5 % of control |  | 
CN(C(=O)n1nnc2ccccc21)C1CCCC1 [Compound 266, N-cyclopentyl-N-methyl-1H-benzo[d][1,2,3]triazole-1-carboxamide] | 0.2 % of control |  | 
CN(C(=O)n1nnc2ccc(O)cc21)C1CCCCC1 [Compound 242, N-cyclohexyl-6-hydroxy-N-methyl-1H-benzo[d][1,2,3]triazole-1-carboxamide] | 0 % of control |  | 
Cl.O=C(N1CCN(C2CCCCC2)CC1)n1cnc(-c2ccc(Cl)cc2)n1 [Compound 212, (3-(4-chlorophenyl)-1H-1,2,4-triazol-1-yl)(4-cyclohexylpiperazin-1-yl)methanone hydrochloride] | 0.8 % of control |  | 
Cc1ccc(OC2CCN(C(=O)n3cnc(-c4ccc(N5CCN(C)CC5)cc4)n3)CC2)cc1.Cl [Compound 132, (3-(4-(4-methylpiperazin-1-yl)phenyl)-1H-1,2,4-triazol-1-yl)(4-(p-tolyloxy)piperidin-1-yl)methanone hydrochloride] | 85.1 % of control |  | 
O=C(N1CCC(Oc2ccc(OCc3ccccc3)cc2)CC1)n1nnc2ccccc21 [Compound 164, (1H-benzo[d][1,2,3]triazol-1-yl)(4-(4-(benzyloxy)phenoxy)piperidin-1-yl)methanone] | 0.3 % of control |  | 
CN(C(=O)n1nnc2ccccc21)[C@H]1CC[C@H](OCc2ccccc2)CC1 [Compound 152, N-((1r,4r)-4-(benzyloxy)cyclohexyl)-N-methyl-1H-benzo[d][1,2,3]triazole-1-carboxamide] | 1.3 % of control |  | 
CC(C)(C)N(Cc1ccccc1)C(=O)n1cnc(-c2ccccc2)c1 [Compound 251, N-benzyl-N-tert-butyl-4-phenyl-1H-imidazole-1-carboxamide] | 91.7 % of control |  | 
O=C(N1CCN(c2ccccc2)CC1)n1cnc(-c2ccccc2)n1 [Compound 111, (3-phenyl-1H-1,2,4-triazol-1-yl)(4-phenylpiperazin-1-yl)methanone] | 1.5 % of control |  | 
O=C(N1CCC(CCCc2ccccc2)CC1)n1cnc(-c2ccc(Cl)cc2)c1 [Compound 197, (4-(4-chlorophenyl)-1H-imidazol-1-yl)(4-(3-phenylpropyl)piperidin-1-yl)methanone] | 0.3 % of control |  | 
O=C(NC12CC3CC(CC(C3)C1)C2)n1cnc(-c2ccccc2)c1 [Compound 237] | 91.6 % of control |  | 
CN(C(=O)n1nnc2ccccc21)c1ccccn1 [Compound 84, N-methyl-N-(pyridin-2-yl)-1H-benzo[d][1,2,3]triazole-1-carboxamide] | 62.5 % of control |  | 
O=C(Nc1ccc(Oc2ccccc2)cc1)n1nnc2ccccc21 [Compound 56, N-(4-phenoxyphenyl)-1H-benzo[d][1,2,3]triazole-1-carboxamide] | 90.7 % of control |  | 
O=C(N1CCOCC1)n1ccnc1 [Compound 1, (1H-imidazol-1-yl)(morpholino)methanone] |  | 62.6 % of control | 
CN(C(=O)n1cnc(-c2ccc(Cl)cc2)c1)c1ccccc1 [Compound 27, 4-(4-chlorophenyl)-N-methyl-N-phenyl-1H-imidazole-1-carboxamide] | 71.4 % of control | 0.2 % of control | 
O=C(N1CCOCC1)n1cnc(-c2ccc(N3CCN(Cc4ccccc4)CC3)cc2)n1 [Compound 133, (3-(4-(4-benzylpiperazin-1-yl)phenyl)-1H-1,2,4-triazol-1-yl)(morpholino)methanone] | 90.7 % of control |  | 
COc1cccc(NC(=O)n2ccc(-c3ccc(-c4ccccc4)cc3)n2)c1 [Compound 22, 3-(biphenyl-4-yl)-N-(3-methoxyphenyl)-1H-pyrazole-1-carboxamide] |  | 95.8 % of control | 
CCOC(=O)N1CCN(C(=O)n2nnc3ccccc32)CC1 [Compound 177, ethyl 4-(1H-benzo[d][1,2,3]triazole-1-carbonyl)piperazine-1-carboxylate] | 6.9 % of control |  | 
